Read-outs that look alike come from different tables or passages of the source.
Key:
[1] = Water solubility at different pH values; format: physicochemical; settings: for solubility: water
Source text: The results are compiled in the table here below:

[2] = test system: Phytophthora infestans strain Pi96; format: in vivo
[3] = 0.1 M carbonate buffer in water, aqueous buffer, pH 7, buffer 0.1M Carbonate
[4] = 0.1 M citrate buffer in water, aqueous buffer, pH 4, buffer 0.1M Citrate
[5] = 0.1 M glycine buffer in water, aqueous buffer, pH 10, buffer 0.1M Glycine

**Q.** Which results are given for `CCCCCCCCCCCCCCCCCC[S+](C)C.[I-]` [ODS-I, octadecyl dimethyl sulfonium iodide, reference compound]?
**A.** solubility [1, 3]: 80 µg/mL; solubility [1, 4]: 290 µg/mL; solubility [1, 5]: 30 µg/mL; solubility ([1]; pH 5.5, aqueous buffer): 120 µg/mL

**Q.** Which “Disease Severity Index (%)” value ([2]; 10 ppm, 3 dpi) does the source give for `CCCCCCCCCCCCCCCCCC[S+](C)C.[Cl-]` [ODS-Cl, octadecyl dimethyl sulfonium chloride] here?
**A.** 10.3%

**Q.** And the “Disease Severity Index (%)” value ([2]; 10 ppm, 5 dpi)?
**A.** 18.3%

**Q.** And the “Disease Severity Index (%)” value ([2]; 10 ppm, 7 dpi)?
**A.** 39.7%

**Q.** And the “Disease Severity Index (%)” value ([2]; 10 ppm, 10 dpi)?
**A.** 97.8%

**Q.** What about the “Fungicide efficacy (%) at 10 dpi” value ([2]; 10 ppm, 10 dpi) of the same compound?
**A.** 0.0%

**Q.** And the “Disease Severity Index (%)” value ([2]; 50 ppm, 3 dpi)?
**A.** 8.7%

**Q.** And the “Disease Severity Index (%)” value ([2]; 50 ppm, 5 dpi)?
**A.** 15.6%

**Q.** What about the “Disease Severity Index (%)” value ([2]; 50 ppm, 7 dpi) of the same compound?
**A.** 40.0%

**Q.** What about the “Disease Severity Index (%)” value ([2]; 50 ppm, 10 dpi) of the same compound?
**A.** 89.4%

**Q.** What about the “Fungicide efficacy (%) at 10 dpi” value ([2]; 50 ppm, 10 dpi) of the same compound?
**A.** 0.0%

**Q.** What about the “Disease Severity Index (%)” value ([2]; 100 ppm, 3 dpi) of the same compound?
**A.** 5.5%

**Q.** What about the “Disease Severity Index (%)” value ([2]; 100 ppm, 5 dpi) of the same compound?
**A.** 11.1%

**Q.** What about the “Disease Severity Index (%)” value ([2]; 100 ppm, 7 dpi) of the same compound?
**A.** 27.8%

**Q.** And the “Disease Severity Index (%)” value ([2]; 100 ppm, 10 dpi)?
**A.** 71.8%

**Q.** And the “Fungicide efficacy (%) at 10 dpi” value ([2]; 100 ppm, 10 dpi)?
**A.** 12.5%

**Q.** And the “Disease Severity Index (%)” value ([2]; 500 ppm, 3 dpi)?
**A.** 0.0%

**Q.** What about the “Disease Severity Index (%)” value ([2]; 500 ppm, 5 dpi) of the same compound?
**A.** 0.0%

**Q.** What about the “Disease Severity Index (%)” value ([2]; 500 ppm, 7 dpi) of the same compound?
**A.** 0.0%

**Q.** What about the “Disease Severity Index (%)” value ([2]; 500 ppm, 10 dpi) of the same compound?
**A.** 0.0%

**Q.** What about the “Fungicide efficacy (%) at 10 dpi” value ([2]; 500 ppm, 10 dpi) of the same compound?
**A.** 100.0%

**Q.** What about the “Disease Severity Index (%)” value ([2]; 1000 ppm, 3 dpi) of the same compound?
**A.** 0.0%

**Q.** What about the “Disease Severity Index (%)” value ([2]; 1000 ppm, 5 dpi) of the same compound?
**A.** 0.0%

**Q.** And the “Disease Severity Index (%)” value ([2]; 1000 ppm, 7 dpi)?
**A.** 0.0%

**Q.** What about the “Disease Severity Index (%)” value ([2]; 1000 ppm, 10 dpi) of the same compound?
**A.** 0.0%

**Q.** What about the “Fungicide efficacy (%) at 10 dpi” value ([2]; 1000 ppm, 10 dpi) of the same compound?
**A.** 100.0%

**Q.** And the “control of the disease (late blight)” value ([2]; 1000 ppm, preventive treatment)?
**A.** full control

**Q.** What about the “dose from which efficient to protect potato leaves against late blight” value ([2]; preventive treatment, detached potato leaves) of the same compound?
**A.** ≥ 100 ppm

**Q.** What about the solubility [1, 3] of the same compound?
**A.** 280 µg/mL

**Q.** And the solubility [1, 4]?
**A.** 1320 µg/mL

**Q.** And the solubility [1, 5]?
**A.** 940 µg/mL

**Q.** What about the “solubility in water compared with octadecyl dimethyl sulfonium iodide” value ([1]; comparison chloride vs iodide) of the same compound?
**A.** higher solubility in water

**Q.** What about the “pH at which the water solubility has a minimum” value ([1]; solubility increases below and above this pH) of the same compound?
**A.** ~7.0

**Q.** And the solubility ([1]; pH 2.2, aqueous buffer)?
**A.** 1650 µg/mL

From patent publication US20230413811A1 (priority 2020, published 2023)
